Measurements: patent US8575187B2, “Combinations of anilinopyrimidines and pyrion compounds” (Janssen Pharmaceutica, NV, priority 2008, dated 2013)

How the values were obtained:
Type in all cases: cell-based
[1] = system: Chaetomium globosum ATCC6205; assay: Poison Plate Assay, fungi on Glucose Agar; conditions: % (I-a) + % (II-g), ppm total active ingredient, growth evaluated after two weeks, 27° C.
Method: (§1) Experiment 1: Poison Plate Assay
(§2) • pyrimethanil (I-a) • cyprodinil (I-b) • mepanipyrim (I-c) Name of Component (II): • 1-hydroxy-2-pyridinone (II-a) • ciclopirox (II-b) • ciclopirox olamine (II-c) • piroctone (II-d) • piroctone olamine (II-e) • rilopirox (II-f) • pyrion disulfide (II-g) • sodium pyrithione (II-h) • zinc pyrithione (II-i) Test Models: • Fungi: to each well of a 24-well microtiter plate, 1000 μl of Glucose Agar (GA: 10 g glucose, 1.5 g K2HPO4, 2 g KH2PO4, 1 g (NH4)2SO4, 0.5 g MgSO4 and 12.5 g agar in 1 liter deionised water) containing the appropriate combination of the test compounds in one of the concentrations of a dose series is added. The nutrient medium is inoculated with the test fungi by adding a spore/mycelium suspension (10 μl) or a small piece of agar from the margin of an actively growing colony and incubated under dark at 27° C. with 70% relative humidity. […] The nutrient medium is inoculated by adding 10 μl of an actively growing liquid culture of the test bacteria in tryptose broth (without agar), and incubated under dark at 27° C. with 70% relative humidity. The growth is evaluated after five days. Concentrations: • Synergy experiment with hydroxypyridone: • MIC values for single compounds were collected from previous screening experiments. These MIC values were used as a guide in determining of the most suitable test dose ranges. For the combination experiments, two overlapping dose series were used, in order to maximise the chance of the MIC values falling within the test concentration range for all combinations: • Series 1: 50.00-37.50-28.13-21.09-15.82-11.87-8.90-6.67-5.01-3.75-2.82-2.11 ppm • Series 2: 25.00-18.75-14.06-10.55-7.91-5.93-4.45-3.34-2.50-1.88-1.41-1.06 ppm • Synergy experiments with bispyrithione and sodium pyrithione: 10.00-7.50-5.63-4.22-3.16-2.37-1.78-1.33-1.00-0.75-0.56-0.42 ppm
(§3) (2000) “Measuring synergy” cosmetics & Toiletries 115(11): 59-62; and Lada, A., A. N. Petrocci, H. A. Green, and J. J. Merianos (1977) “Antimicrobial composition” U.S. Pat. No. 4,061,750, 3 pp.): […]

[2] = system: Staphylococcus aureus (g+) LMG 8064; assay: Poison Plate Assay, bacteria on Tryptose Agar; conditions: ppm total active ingredient, growth evaluated after five days, 27° C.
Method: as §1, §2, §3

[3] = system: Ulocladium atrum IMI214699a; assay: Poison Plate Assay, fungi on Glucose Agar; conditions: % (I-a) + % (II-h), ppm total active ingredient, growth evaluated after two weeks, 27° C.
Method: as §1, §2, §3

## [O-][n+]1ccccc1SSc1cccc[n+]1[O-] [(I-a) + (II-g) 0 + 100, pyrion disulfide]
[1]; ATCC6205, 336 h, read-out: MIC-values (minimum inhibitory concentration) in ppm
  MIC: 40 µg/mL
[2]; LMG8064, 120 h, % (I-a) + % (II-g), read-out: MIC-values (minimum inhibitory concentration) in ppm
  MIC: 213 µg/mL

## Cc1cc(C)nc(Nc2ccccc2)n1 [(I-a) + (II-h) 100 + 0, pyrimethanil]
[3]
  MIC-values (minimum inhibitory concentration) in ppm: 3.16 ppm
[2]; % (I-a) + % (II-h)
  MIC-values (minimum inhibitory concentration) in ppm: 4.22 ppm

## Cc1cc(C)nc(Nc2ccccc2)n1 [(I-a) + (II-g) 100 + 0, pyrimethanil]
[1]
  MIC-values (minimum inhibitory concentration) in ppm: 1.78 ppm
[2]; % (I-a) + % (II-g)
  MIC-values (minimum inhibitory concentration) in ppm: 3.16 ppm
